Our source for the AC50 and IC50 values is ChEMBL document CHEMBL1201862, “PubChem BioAssay data set” (2004).

The subject of assay [1] is Candida albicans. Put plainly: resistant Candida growth with fluconazole co-treatment – CaCi-8 strain, Alamar Blue, dry powder, set 2, dose response (AID 488909). The assay is classed as functional, organism-based.
Assay [2] deals with Candida albicans. In words: Candida growth inhibition combined with fluconazole – CaCi-2 strain, Alamar Blue, dry powder, set 3, dose response (AID 488907). It is filed as functional, organism-based.
Assay [3] addresses T1, Short transient receptor potential channel 4 (Mus musculus, UniProt Q9QUQ5).
T1 sequence (Q9QUQ5 whole entry): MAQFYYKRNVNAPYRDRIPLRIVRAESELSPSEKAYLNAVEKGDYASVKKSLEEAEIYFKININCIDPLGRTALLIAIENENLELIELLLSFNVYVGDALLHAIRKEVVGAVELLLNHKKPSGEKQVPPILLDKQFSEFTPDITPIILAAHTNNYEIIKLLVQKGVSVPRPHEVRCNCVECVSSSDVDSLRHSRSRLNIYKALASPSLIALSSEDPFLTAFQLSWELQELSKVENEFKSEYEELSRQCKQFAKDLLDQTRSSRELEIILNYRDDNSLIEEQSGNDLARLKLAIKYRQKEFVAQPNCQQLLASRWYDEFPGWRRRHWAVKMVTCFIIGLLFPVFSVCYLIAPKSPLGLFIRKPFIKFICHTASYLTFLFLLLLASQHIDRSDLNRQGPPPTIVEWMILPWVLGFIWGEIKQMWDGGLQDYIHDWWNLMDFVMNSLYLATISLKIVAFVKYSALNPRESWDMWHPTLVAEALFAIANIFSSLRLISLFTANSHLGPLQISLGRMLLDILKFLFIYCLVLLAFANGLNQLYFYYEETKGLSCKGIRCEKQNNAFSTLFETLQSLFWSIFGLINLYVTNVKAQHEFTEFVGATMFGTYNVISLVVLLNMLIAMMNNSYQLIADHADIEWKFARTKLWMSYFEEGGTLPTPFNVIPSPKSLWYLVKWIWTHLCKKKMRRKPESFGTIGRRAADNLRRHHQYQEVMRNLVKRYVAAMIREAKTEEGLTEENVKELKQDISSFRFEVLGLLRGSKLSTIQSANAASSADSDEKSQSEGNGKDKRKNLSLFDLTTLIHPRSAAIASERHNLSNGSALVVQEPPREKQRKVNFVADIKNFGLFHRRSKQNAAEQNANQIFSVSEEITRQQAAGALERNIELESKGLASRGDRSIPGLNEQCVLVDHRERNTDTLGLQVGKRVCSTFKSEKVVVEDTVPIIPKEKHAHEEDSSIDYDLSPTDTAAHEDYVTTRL
Put plainly: potency of mouse TRPC4 calcium flux blockers – cell-based, HEK293 TRPC4/mu-opioid, DAMGO stimulus, Fluo-4, dose response (AID 492994). The assay is classed as functional.

The target in assay [4] is T1, Short transient receptor potential channel 4. In words: SAR Analysis for the identification of selective inhibits of the transient receptor potential cation channel C4 (TRPC4): Automated Electrophysiology_2. [Related pubchem assays (depositor defined):AID2256]. The assay is classed as functional.
The next assay has as its system HEK293. In words: cells. It is filed as functional, cell-based. The following applies: Homo sapiens.
The target of assay [5] is T2, Nuclear receptor subfamily 0 group B member 1 (Homo sapiens, UniProt P51843).
T2 sequence (P51843 whole entry): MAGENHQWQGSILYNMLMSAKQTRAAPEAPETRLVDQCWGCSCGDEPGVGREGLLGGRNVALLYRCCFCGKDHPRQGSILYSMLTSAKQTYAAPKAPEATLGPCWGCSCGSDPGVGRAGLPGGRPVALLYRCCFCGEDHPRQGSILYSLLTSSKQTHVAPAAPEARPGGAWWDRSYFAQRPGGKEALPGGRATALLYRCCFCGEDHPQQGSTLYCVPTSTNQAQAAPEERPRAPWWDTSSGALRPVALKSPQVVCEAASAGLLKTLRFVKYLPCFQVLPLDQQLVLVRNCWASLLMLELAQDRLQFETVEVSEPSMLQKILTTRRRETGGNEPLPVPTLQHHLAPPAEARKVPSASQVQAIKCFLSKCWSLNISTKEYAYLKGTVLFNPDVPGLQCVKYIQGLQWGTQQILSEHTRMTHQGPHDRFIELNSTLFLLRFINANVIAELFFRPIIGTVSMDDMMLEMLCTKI
In words: Luminescence-based cell-based high throughput dose response assay for inhibitors of the orphan nuclear receptor subfamily 0, group B, member 1 (DAX1; NR0B1). [Related pubchem assays (depositor defined):AID504766, AID504790]. The assay is classed as functional.

Each structure is given as a SMILES string. Active and inactive are the calls of the source.

For `CC(C)C(=O)N1CCN(c2ccnc3cc(Cl)ccc23)CC1`, the AC50 is < 0.195 µM (active) in the assay with Candida albicans [1] and 3.03 µM (active) in the assay on Candida albicans [2].
As for `Cc1cc(N2CC(C)CC(C)C2)nc2ccccc12` (stereo unspecified), the IC50 was 12.6 µM (active) in assay [3] and 11.9 µM (active) in assay [4].
On to `Cc1cc(OCC(=O)N2CCC(C(N)=O)CC2)c2c(C)cc(=O)oc2c1`, for which the IC50 (in the assay with HEK293; in assay [5]) was > 67.6 µM (inactive) throughout.
